Measurements reported in PubChem BioAssay (NCI).
Several values for one entry are separate records, joined by “and”; a condition that tells them apart may be missing. Equal values may be shown once.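 Interpolation was linear, between the two tested concentrations surrounding the appropriate level; five concentrations were tested over 48 hours in 96-well plates. TGI: total growth inhibition.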

Legend:
Assay in all cases: NCI tumour cell line growth inhibition, 48 h
A498 renal = tested on: A498 renal
A549 NSCLC = tested on: A549 NSCLC
CAKI-1 renal = tested on: CAKI-1 renal
CCRF-CEM leukemia = tested on: CCRF-CEM leukemia
COLO 205 colon = tested on: COLO 205 colon
DLD-1 colon = tested on: DLD-1 colon
DMS 273 small cell lung = tested on: DMS 273 small cell lung
EKVX NSCLC = tested on: EKVX NSCLC
HCC-2998 colon = tested on: HCC-2998 colon
HCT-116 colon = tested on: HCT-116 colon
HCT-15 colon = tested on: HCT-15 colon
HL-60(TB) leukemia = tested on: HL-60(TB) leukemia
HOP-18 NSCLC = tested on: HOP-18 NSCLC
HOP-62 NSCLC = tested on: HOP-62 NSCLC
HOP-92 NSCLC = tested on: HOP-92 NSCLC
HT29 colon = tested on: HT29 colon
IGROV1 ovarian = tested on: IGROV1 ovarian
K-562 leukemia = tested on: K-562 leukemia
KM12 colon = tested on: KM12 colon
KM20L2 colon = tested on: KM20L2 colon
LOX IMVI melanoma = tested on: LOX IMVI melanoma
M19-MEL melanoma = tested on: M19-MEL melanoma
MALME-3M melanoma = tested on: MALME-3M melanoma
MCF7 breast = tested on: MCF7 breast
MOLT-4 leukemia = tested on: MOLT-4 leukemia
NCI-H226 lung = tested on: NCI-H226 lung
NCI-H23 lung = tested on: NCI-H23 lung
NCI-H460 lung = tested on: NCI-H460 lung
NCI-H522 lung = tested on: NCI-H522 lung
NCI/ADR-RES ovarian = tested on: NCI/ADR-RES ovarian
OVCAR-3 ovarian = tested on: OVCAR-3 ovarian
OVCAR-4 ovarian = tested on: OVCAR-4 ovarian
OVCAR-5 ovarian = tested on: OVCAR-5 ovarian
OVCAR-8 ovarian = tested on: OVCAR-8 ovarian
P388 leukemia = tested on: P388 leukemia
P388/ADR leukemia = tested on: P388/ADR leukemia
RPMI-8226 leukemia = tested on: RPMI-8226 leukemia
RXF 393 renal = tested on: RXF 393 renal
SF-268 CNS = tested on: SF-268 CNS
SF-295 CNS = tested on: SF-295 CNS
SF-539 CNS = tested on: SF-539 CNS
SK-MEL-2 melanoma = tested on: SK-MEL-2 melanoma
SK-MEL-28 melanoma = tested on: SK-MEL-28 melanoma
SK-MEL-5 melanoma = tested on: SK-MEL-5 melanoma
SK-OV-3 ovarian = tested on: SK-OV-3 ovarian
SN12C renal = tested on: SN12C renal
SN12K1 renal = tested on: SN12K1 renal
SNB-19 CNS = tested on: SNB-19 CNS
SNB-75 CNS = tested on: SNB-75 CNS
SNB-78 CNS = tested on: SNB-78 CNS
SW-620 colon = tested on: SW-620 colon
U251 CNS = tested on: U251 CNS
UACC-257 melanoma = tested on: UACC-257 melanoma
UACC-62 melanoma = tested on: UACC-62 melanoma
UO-31 renal = tested on: UO-31 renal
XF 498 CNS = tested on: XF 498 CNS
786-0 renal = tested on: 786-0 renal
ACHN renal = tested on: ACHN renal
BT-549 breast = tested on: BT-549 breast
DMS 114 small cell lung = tested on: DMS 114 small cell lung
DU-145 prostate = tested on: DU-145 prostate
HS 578T breast = tested on: HS 578T breast
LXFL 529 NSCLC = tested on: LXFL 529 NSCLC
M14 melanoma = tested on: M14 melanoma
MDA-MB-231 breast = tested on: MDA-MB-231 breast
MDA-MB-435 = tested on: MDA-MB-435
PC-3 prostate = tested on: PC-3 prostate
RXF-631 renal = tested on: RXF-631 renal
SR leukemia = tested on: SR leukemia
T-47D breast = tested on: T-47D breast
TK-10 renal = tested on: TK-10 renal

Measured: TGI

COc1ccc(Cc2nn(C3OC(COC(C)=O)C(OC(C)=O)C(OC(C)=O)C3OC(C)=O)c(=S)n(-c3ccc(OC)cc3)c2=O)cc1 (stereo not given)
> 92.2 µM: SNB-75 CNS
not listed: 786-0 renal | ACHN renal | BT-549 breast | DMS 114 small cell lung | DU-145 prostate | HS 578T breast | LXFL 529 NSCLC | M14 melanoma | MDA-MB-231 breast | MDA-MB-435 | PC-3 prostate | RXF-631 renal | SR leukemia | T-47D breast | TK-10 renal
> 100 µM: all other assays above

O=S(=O)(O)c1ccc(-c2c3nc(c(-c4ccc(S(=O)(=O)O)cc4)c4ccc([nH]4)c(-c4ccc(S(=O)(=O)O)cc4)c4nc(c(-c5ccc(S(=O)(=O)O)cc5)c5ccc2[nH]5)C=C4)C=C3)cc1
96.2 µM and 85.3 µM: RXF 393 renal
79.9 µM and > 100 µM: CCRF-CEM leukemia
93.6 µM: NCI-H226 lung
> 100 µM and 76.8 µM: HOP-92 NSCLC
> 100 µM and 73.4 µM: SK-MEL-28 melanoma
74.5 µM: BT-549 breast
> 100 µM and 54.8 µM: UO-31 renal
73.9 µM and > 100 µM: TK-10 renal
> 100 µM and 55.1 µM: SNB-75 CNS
12.8 µM and > 100 µM: MOLT-4 leukemia
not listed: P388 leukemia | P388/ADR leukemia | SN12K1 renal
> 100 µM: all other assays above

CN(c1nc(=[N+](C)C)ss1)C1CCCCC1
not listed: COLO 205 colon | MCF7 breast | NCI/ADR-RES ovarian | OVCAR-3 ovarian | P388 leukemia | P388/ADR leukemia | SN12K1 renal | BT-549 breast | DU-145 prostate | HS 578T breast | MDA-MB-231 breast | MDA-MB-435 | PC-3 prostate | T-47D breast
> 100 µM: all other assays above

COc1ccc(/C=C/c2cc(OC)cc(OC)c2)cc1
8.52 µM: HL-60(TB) leukemia
> 34.4 µM: NCI-H460 lung
10.7 µM: COLO 205 colon | RXF 393 renal
11 µM: SF-539 CNS
15.6 µM: DMS 273 small cell lung
> 28.2 µM: SF-268 CNS
> 31.3 µM: SF-295 CNS
> 64.2 µM: UO-31 renal
9.91 µM: DMS 114 small cell lung
> 36.6 µM: HT29 colon
8.78 µM: OVCAR-3 ovarian
8.71 µM: SNB-78 CNS
46.8 µM: CAKI-1 renal
> 35.6 µM: SNB-75 CNS
37.5 µM: SK-OV-3 ovarian
33.2 µM: HCC-2998 colon
> 59.8 µM: U251 CNS
> 50.1 µM: OVCAR-5 ovarian
36.6 µM: CCRF-CEM leukemia
> 51 µM: MOLT-4 leukemia
> 58 µM: HCT-116 colon
> 45.4 µM: SN12C renal
> 57 µM: SK-MEL-2 melanoma
11.6 µM: NCI-H522 lung
> 61 µM: A498 renal
> 31.1 µM: NCI-H226 lung
59.6 µM: 786-0 renal
> 69.1 µM: KM12 colon
98.9 µM: XF 498 CNS
32.6 µM: HOP-62 NSCLC
53.1 µM: M14 melanoma
23.7 µM: RPMI-8226 leukemia
11.7 µM: KM20L2 colon
> 53.2 µM: RXF-631 renal
65.7 µM: SK-MEL-28 melanoma
not listed: MCF7 breast | NCI/ADR-RES ovarian | P388 leukemia | P388/ADR leukemia | SN12K1 renal | BT-549 breast | DU-145 prostate | HS 578T breast | MDA-MB-231 breast | MDA-MB-435 | PC-3 prostate | T-47D breast
> 100 µM: all other assays above
